In article PMC7582737, “Melanocortin Receptor 4 (MC4R) Signaling System in Nile Tilapia” (International Journal of Molecular Sciences, 2020):

How the values were obtained:
[1] = system: MC4R; design: method as in PMID 24085819, PMID 31398355, PMID 31299224, PMID 32922362; settings: mammalian peptides; cited from earlier work
[2] = system: tilapia MC4R + MRAP2b; settings: HEK293 cells; cited from earlier work
From the text: The presence of all MC4R signaling components in tilapia led us to further examine their interaction in vitro. […] Our finding partly agrees with recent findings in spotted gar, tilapia, topmouth culter, and zebrafish, showing that MC4R could be activated by mam ...

[3] = molecular target: tilapia melanocortin receptor 4 (MC4R), N-terminally 3xFlag-tagged (Nile tilapia (Oreochromis niloticus))
[4] = system: rainbow trout; settings: cited from earlier work
[5] = system: goldfish; settings: cited from earlier work
From the text: In the brain, all genes were detected to be highly or moderately expressed. This finding is consistent with previous reports in teleosts, such as zebrafish and medaka, in which all the genes are expressed in the brain as detected by qRT-PCR assays.

[6] = system: zebrafish; settings: ip/icv injection of MC4R agonist; cited from earlier work
[7] = molecular target: tilapia melanocortin receptor 4 (MC4R), N-terminally 3xFlag-tagged (Nile tilapia (Oreochromis niloticus)); remark: listed apart in the source
[8] = ip/icv injection of MC4R agonist

NDP-α-MSH
activation of MC4R, relative potency (in words) [1]: with similar potencies

ACTH1-39
effect of MRAP2b on EC50 value in activating tilapia MC4R [2]: cannot significantly alter the EC50 value
activation of MC4R, relative potency (in words) [1]: with similar potencies

tilapia melanocortin-2 receptor accessory protein 2b (MRAP2b), N-terminally Myc-tagged (natural protein)
sensitivity and selectivity of MC4R for ACTH(1-40) with MRAP2b co-expressed, against MC4R alone (EC50 0.246 nM vs. 0.032 nM; pGL3-CRE-luciferase reporter, CHO cells) [3]: 8 fold

ACTH1-24: mammalian ACTH1-24 (cited)
activation of MC4R, relative potency (in words) [1]: with similar potencies

HS024
effect on food intake, rainbow trout ([4]; injection of MC4R antagonist): stimulate food intake
effect on food intake, goldfish ([5]; injection of MC4R antagonist): stimulate food intake

MTII
effect on feeding, rainbow trouts [4, 8]: reduce the feeding
effect on feeding, zebrafish [6]: reduce the feeding
effect on feeding, goldfish [5, 8]: reduce the feeding

Ac-SYSMEHFRWGKPV-NH2 [tilapia α-MSH (acetyl-α-MSH with an amidated C-terminus; derived from the POMCa1 precursor)]
EC50 of activating the cAMP/PKA signaling pathway (pGL3-CRE-luciferase reporter) in CHO cells expressing tilapia MC4R in the presence of MRAP2b [7]: 0.786 nM
EC50 of activating the cAMP/PKA signaling pathway (pGL3-CRE-luciferase reporter) in CHO cells expressing tilapia MC4R, without MRAP2b [7]: 0.955 nM

DGSYKMKHFRWSGPPAS [tilapia β-MSH (derived from the POMCa1 precursor)]
EC50 of activating the cAMP/PKA signaling pathway (pGL3-CRE-luciferase reporter) in CHO cells expressing tilapia MC4R in the presence of MRAP2b [7]: 0.572 nM
EC50 of activating the cAMP/PKA signaling pathway (pGL3-CRE-luciferase reporter) in CHO cells expressing tilapia MC4R, without MRAP2b [7]: 0.421 nM

SYSMEHFRWGKPVGRKRRPVKVYTSNGVAEESAEVFPEEM [tilapia ACTH(1-40) (derived from the POMCa1 precursor)]
EC50 of activating the cAMP/PKA signaling pathway (pGL3-CRE-luciferase reporter) in CHO cells expressing tilapia MC4R in the presence of MRAP2b [7]: 32 pM
EC50 of activating the cAMP/PKA signaling pathway (pGL3-CRE-luciferase reporter) in CHO cells expressing tilapia MC4R, without MRAP2b [7]: 0.246 nM
